# Assay results as given in patent US20240335420A1, “N-ACYLHYDRAZONE COMPOUNDS CAPABLE OF INHIBITING NAV 1.7 AND/OR NAV 1.8, PROCESSES FOR THE PREPARATION THEREOF, COMPOSITIONS, USES, METHODS FOR TREATMENT USING SAME AND KITS” (EUROFARMA LABORATÓRIOS S.A., priority 2021, published 2024).
# Tests used:
# [1] = molecular target: human sodium channels Nav 1.7 (Homo sapiens (Human), UniProt Q15858); experiment: Automated whole-cell voltage-clamp (ScreenPatch 384P), Nav 1.7 sodium current, Protocol 1; type: cell-based; settings: CHO cells expressing human Nav 1.7; for IC50: Protocol 1 (holding −90 mV, 0.1 Hz), room temperature, read-out: Nav1.7 IC50; for inhibition at 10 µM: Protocol 1, read-out: Nav1.7 percent of inhibition (IC50 value not available)
# Procedure: (§1) Biological assays were performed on Chinese hamster ovary (CHO) cells expressing the human sodium channels Nav 1.8 and Nav 1.7 stably.
# (§2) The experimental voltage-clamp protocol using the whole cell configuration was established on the automated ScreenPatch® 384P platform (SP384PE, Nanion Technologies, Livingston, NJ) and recording of the results was performed with a Nanion 384-well Patch Clamp chip (NPC) (Nanion Technologies, Livingston, NJ).
# (§3) Compounds of Formula (I), were diluted in eight concentrations in the extracellular solution composed of physiological saline, buffered with HEPES (mM): NaCl, 137; KCl, 4; CaCl2, 3.8; MgCl2, 1; HEPES, 10; Glucose, 10; pH 7.4. The […], 50; CsF, 90; MgCl2, 5; EGTA, 5; HEPES, 10; pH 7.2. The duration of exposure of each compound with the cells expressing Nav 1.7 or Nav 1.8 was at least five minutes and the assays were performed at room temperature.
# (§4) The measurements of the sodium currents of Nav 1.8 and Nav 1.7 were obtained using the voltage protocols described below: • Protocol 1: A holding voltage of −90 mV was established followed by a voltage phase of 200 ms to −120 mV, followed by a voltage step of 10 mV for 1 second for Nav 1.8 or 0 mV for Nav 1.7, followed by a step of −100 mV for 20 ms, followed by a step of 20 ms for 10 mV for Nav 1.8 or 0 mV for Nav 1.7 (TP1A) before returning to the holding voltage of −90 mV. • Protocol 2: A holding voltage of −100 mV was established followed by an inactivation voltage step at −40 mV for 8 seconds, followed by a −100 mV step for […], followed by a 20 ms step for 10 mV for Nav 1.8 or 0 mV for Nav 1.7 (TP1A) before returning to the holding voltage of −100 mV.
# (§5) Protocols were repeated at a frequency of 0.1 Hz (Protocol 1) or 0.05 Hz (Protocol 2) and current amplitude was quantified over the TP1A phase log. The variation in the peak amplitude of the current was evaluated according to the Formula described below, after exposure of the cells expressing the channels, at each concentration of the different compounds:
# (§6) [formula] • where |TP1A, basal, and |TP1A, molecule represent the entry peaks of sodium currents into TP1A prior to exposure to the compound and in the presence of the compound, respectively.
# (§7) The decrease in peak current amplitude, after exposure of the cells to the compounds, was used to calculate the percent relative blocking of the channels relative to the positive control according to the Formula below:
# (§8) [formula] • where % V and % CP represent the averages of the values of current inhibition with a vehicle (DMSO) and positive controls, respectively. The sodium currents of the positive control were considered as 100%.
# (§9) [formula] • where [Test] represents the concentration of the evaluated molecule, IC50 is the concentration of the compound that generates half of the maximum inhibition, N is the Hill's coefficient and % Block′ is the percentage of the sodium channel current (Nav 1.8 and Nav 1.7) inhibited at each concentration of the evaluated molecule. Data were obtained by non-linear least squares regression with XLfit for Excel (Microsoft, Redmond, WA).
# (§10) Compounds were tested in at least one assay to obtain the IC50 value.
# [2] = molecular target: human sodium channels Nav 1.8 (Homo sapiens (Human), UniProt Q9Y5Y9); experiment: Automated whole-cell voltage-clamp (ScreenPatch 384P), Nav 1.8 sodium current, Protocol 1; type: cell-based; settings: CHO cells expressing human Nav 1.8; for IC50: Protocol 1 (holding −90 mV, 0.1 Hz), room temperature, read-out: Nav1.8 IC50; for inhibition at 10 µM: Protocol 1, read-out: Nav1.8 percent of inhibition (IC50 value not available)
# Procedure: as §1, §2, §3, §4, §5, §6, §7, §8, §9, §10
# Chain of human sodium channels Nav 1.8 (Q9Y5Y9 whole entry): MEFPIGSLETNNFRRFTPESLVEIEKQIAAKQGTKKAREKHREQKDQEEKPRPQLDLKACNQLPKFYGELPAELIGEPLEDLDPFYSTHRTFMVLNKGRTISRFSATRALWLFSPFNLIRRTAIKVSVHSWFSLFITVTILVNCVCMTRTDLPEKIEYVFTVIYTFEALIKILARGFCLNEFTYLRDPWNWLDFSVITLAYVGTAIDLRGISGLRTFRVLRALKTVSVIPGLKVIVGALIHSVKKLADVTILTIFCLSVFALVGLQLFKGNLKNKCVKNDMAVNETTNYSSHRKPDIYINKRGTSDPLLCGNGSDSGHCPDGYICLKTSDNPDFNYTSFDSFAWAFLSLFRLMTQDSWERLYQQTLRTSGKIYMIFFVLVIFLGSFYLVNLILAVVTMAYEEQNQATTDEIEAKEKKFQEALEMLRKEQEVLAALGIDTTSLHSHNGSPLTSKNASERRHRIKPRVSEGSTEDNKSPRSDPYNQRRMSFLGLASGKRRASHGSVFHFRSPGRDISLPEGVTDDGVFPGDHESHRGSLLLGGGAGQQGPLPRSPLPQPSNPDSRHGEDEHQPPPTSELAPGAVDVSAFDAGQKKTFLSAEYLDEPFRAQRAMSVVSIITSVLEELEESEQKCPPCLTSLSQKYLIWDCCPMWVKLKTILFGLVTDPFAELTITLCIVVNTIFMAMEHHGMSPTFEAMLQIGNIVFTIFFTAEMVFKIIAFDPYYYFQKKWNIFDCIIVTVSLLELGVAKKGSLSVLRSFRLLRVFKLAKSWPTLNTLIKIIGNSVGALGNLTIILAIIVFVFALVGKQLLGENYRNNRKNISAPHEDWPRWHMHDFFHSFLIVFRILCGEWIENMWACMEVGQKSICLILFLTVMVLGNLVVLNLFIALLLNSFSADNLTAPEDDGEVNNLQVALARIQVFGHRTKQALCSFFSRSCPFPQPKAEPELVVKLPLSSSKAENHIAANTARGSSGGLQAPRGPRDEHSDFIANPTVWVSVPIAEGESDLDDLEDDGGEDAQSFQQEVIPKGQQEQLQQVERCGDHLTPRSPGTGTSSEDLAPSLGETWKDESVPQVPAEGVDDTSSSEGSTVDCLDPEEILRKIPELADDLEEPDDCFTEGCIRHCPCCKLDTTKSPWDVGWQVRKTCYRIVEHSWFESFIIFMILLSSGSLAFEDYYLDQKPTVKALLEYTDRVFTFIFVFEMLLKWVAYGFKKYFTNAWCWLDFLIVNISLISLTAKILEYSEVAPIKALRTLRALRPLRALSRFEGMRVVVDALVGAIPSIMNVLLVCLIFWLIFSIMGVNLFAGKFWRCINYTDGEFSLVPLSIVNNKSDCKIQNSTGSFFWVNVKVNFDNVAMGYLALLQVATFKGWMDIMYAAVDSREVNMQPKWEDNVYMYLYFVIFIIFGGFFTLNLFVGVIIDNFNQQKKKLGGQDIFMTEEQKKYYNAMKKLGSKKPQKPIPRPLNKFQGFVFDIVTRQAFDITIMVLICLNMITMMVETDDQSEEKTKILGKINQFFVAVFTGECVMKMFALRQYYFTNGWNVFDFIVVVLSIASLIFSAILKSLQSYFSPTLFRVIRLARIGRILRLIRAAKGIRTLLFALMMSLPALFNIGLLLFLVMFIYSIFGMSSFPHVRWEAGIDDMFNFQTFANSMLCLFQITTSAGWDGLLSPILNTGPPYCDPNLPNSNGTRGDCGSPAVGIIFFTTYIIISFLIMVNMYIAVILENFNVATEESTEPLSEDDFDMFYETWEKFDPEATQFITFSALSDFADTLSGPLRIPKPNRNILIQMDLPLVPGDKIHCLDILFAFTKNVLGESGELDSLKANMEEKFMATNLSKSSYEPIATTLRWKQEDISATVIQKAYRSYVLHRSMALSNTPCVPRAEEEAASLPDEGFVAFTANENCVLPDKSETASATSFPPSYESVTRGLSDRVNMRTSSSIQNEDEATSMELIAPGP
# Chain of human sodium channels Nav 1.7 (Q15858 whole entry): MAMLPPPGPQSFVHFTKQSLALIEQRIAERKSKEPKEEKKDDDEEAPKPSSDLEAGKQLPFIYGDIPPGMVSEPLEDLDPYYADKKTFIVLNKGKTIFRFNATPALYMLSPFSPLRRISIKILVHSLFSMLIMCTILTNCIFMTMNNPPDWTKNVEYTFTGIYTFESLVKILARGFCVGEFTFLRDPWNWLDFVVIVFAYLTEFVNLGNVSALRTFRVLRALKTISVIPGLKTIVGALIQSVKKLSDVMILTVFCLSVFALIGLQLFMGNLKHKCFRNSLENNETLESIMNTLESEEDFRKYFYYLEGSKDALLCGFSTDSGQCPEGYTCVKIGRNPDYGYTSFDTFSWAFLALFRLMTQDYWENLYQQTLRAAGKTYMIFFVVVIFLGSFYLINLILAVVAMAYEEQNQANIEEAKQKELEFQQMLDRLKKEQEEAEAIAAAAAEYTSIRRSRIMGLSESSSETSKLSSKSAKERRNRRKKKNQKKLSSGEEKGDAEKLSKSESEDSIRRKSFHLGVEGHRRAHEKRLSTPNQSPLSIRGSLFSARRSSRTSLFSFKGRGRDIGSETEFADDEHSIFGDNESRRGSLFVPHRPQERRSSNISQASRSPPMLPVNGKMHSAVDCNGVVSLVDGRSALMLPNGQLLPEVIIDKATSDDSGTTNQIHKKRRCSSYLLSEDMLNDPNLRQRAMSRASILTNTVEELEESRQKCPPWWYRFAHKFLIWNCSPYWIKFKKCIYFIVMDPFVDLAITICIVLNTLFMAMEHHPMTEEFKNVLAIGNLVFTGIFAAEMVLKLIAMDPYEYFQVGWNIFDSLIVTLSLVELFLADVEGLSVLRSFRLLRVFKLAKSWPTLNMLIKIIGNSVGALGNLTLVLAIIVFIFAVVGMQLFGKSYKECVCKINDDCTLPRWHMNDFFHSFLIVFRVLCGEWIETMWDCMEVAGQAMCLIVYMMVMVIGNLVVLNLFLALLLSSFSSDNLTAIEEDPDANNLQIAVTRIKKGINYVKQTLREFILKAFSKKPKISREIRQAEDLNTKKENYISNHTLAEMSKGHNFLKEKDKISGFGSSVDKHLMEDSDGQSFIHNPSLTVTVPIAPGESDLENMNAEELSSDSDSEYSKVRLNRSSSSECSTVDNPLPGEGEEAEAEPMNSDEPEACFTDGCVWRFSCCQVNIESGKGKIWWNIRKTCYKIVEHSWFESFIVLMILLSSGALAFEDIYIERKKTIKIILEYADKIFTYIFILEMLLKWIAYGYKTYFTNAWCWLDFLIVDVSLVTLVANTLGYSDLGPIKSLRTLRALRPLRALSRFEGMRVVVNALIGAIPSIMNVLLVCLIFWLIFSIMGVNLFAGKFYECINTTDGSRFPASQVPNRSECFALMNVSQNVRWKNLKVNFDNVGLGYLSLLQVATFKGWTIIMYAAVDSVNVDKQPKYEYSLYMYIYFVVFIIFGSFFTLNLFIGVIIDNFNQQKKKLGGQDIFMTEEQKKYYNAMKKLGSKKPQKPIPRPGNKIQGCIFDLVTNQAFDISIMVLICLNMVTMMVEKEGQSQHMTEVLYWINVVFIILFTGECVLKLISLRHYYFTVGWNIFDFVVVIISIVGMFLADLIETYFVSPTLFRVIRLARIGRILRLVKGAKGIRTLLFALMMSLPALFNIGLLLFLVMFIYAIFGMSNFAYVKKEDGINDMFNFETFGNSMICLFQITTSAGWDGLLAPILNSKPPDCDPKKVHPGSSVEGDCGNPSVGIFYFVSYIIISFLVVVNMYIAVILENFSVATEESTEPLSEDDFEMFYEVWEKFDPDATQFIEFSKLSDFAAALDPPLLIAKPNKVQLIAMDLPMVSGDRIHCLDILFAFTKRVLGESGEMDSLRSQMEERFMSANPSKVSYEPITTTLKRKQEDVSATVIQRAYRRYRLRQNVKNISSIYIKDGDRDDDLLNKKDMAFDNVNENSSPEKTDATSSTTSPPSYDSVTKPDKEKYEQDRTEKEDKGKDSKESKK
Compound,IC50 [1] [µM],IC50 [2] [µM],inhibition at 10 µM [1] [%],inhibition at 10 µM [2] [%]
"COc1cc(/C=N/NC(=O)c2ccc(-c3ccc(Cl)cc3)o2)cc(OC)c1 [Compound 2, (E)-5-(4-chlorophenyl)-N′-(3,5-dimethoxybenzylidene) furan-2-carbohydrazide]",> 30,> 30,–,–
"CCOc1ccc(-c2ccc(C(=O)N/N=C/c3cccs3)o2)cc1 [Compound 3, (E)-5-(4-ethoxyphenyl)-N′-(thiophen-2-ylmethylene) furan-2-carbohydrazide]",> 30,> 30,–,–
"CCOc1ccc(-c2ccc(C(=O)N/N=C/c3cccnc3N3CCOCC3)o2)cc1 [Compound 4, (E)-5-(4-ethoxyphenyl)-N′-((2-morpholinopyridin-3-yl)methylene) furan-2-carbohydrazide]",–,–,< 10,< 10
"CCOc1ccc(-c2ccc(C(=O)N/N=C/c3cc(CN(C)C)cs3)o2)cc1 [Compound 5, (E)-N′-((4-((dimethylamino)methyl)thiophen-2-yl)methylene)-5-(4-ethoxyphenyl) furan-2-carbohydrazide]",–,–,< 10,< 10
"CCOc1ccc(-c2ccc(C(=O)N/N=C/c3cccnc3)o2)cc1 [Compound 6, (E)-5-(4-ethoxyphenyl)-N′-(pyridin-3-ylmethylene) furan-2-carbohydrazide]",–,–,< 10,< 10
"CC(C)Oc1ccc(-c2ccc(C(=O)N/N=C/c3cccs3)o2)cc1 [Compound 7, (E)-5-(4-isopropoxyphenyl)-N′-(thiophen-2-ylmethylene) furan-2-carbohydrazide]",> 16.7,> 6.27,–,–
"CC(C)Oc1ccc(-c2ccc(C(=O)N/N=C/c3cc(CN(C)C)cs3)o2)cc1 [Compound 8, (E)-N′-((4-((dimethylamino)methyl)thiophen-2-yl)methylene)-5-(4-isopropoxyphenyl) furan-2-carbohydrazide]",–,–,< 10,< 10
"O=C(N/N=C/c1cccs1)c1ccc(-c2ccc(OCCN3CCOCC3)cc2)o1 [Compound 9, (E)-5-(4-(2-morpholinoethoxy)phenyl)-N′-(thiophen-2-ylmethylene) furan-2-carbohydrazide]",–,–,< 10,< 10
"O=C(N/N=C/c1cccs1)c1cccc(-c2ccc(Cl)cc2)n1 [Compound 11, (E)-6-(4-chlorophenyl)-N′-(thiophen-2-ylmethylene) picolinohydrazide]",12,8.58,–,–
"CCOc1ccc(-c2cccc(C(=O)N/N=C/c3cccs3)n2)cc1 [Compound 12, (E)-6-(4-ethoxyphenyl)-N′-(thiophen-2-ylmethylene) picolinohydrazide]",1.89,3.21,–,–
"CC(C)Oc1ccc(-c2cccc(C(=O)N/N=C/c3cccs3)n2)cc1 [Compound 13, (E)-6-(4-isopropoxyphenyl)-N′-(thiophen-2-ylmethylene) picolinohydrazide]",–,–,< 10,< 10
"COc1cc(/C=N/NC(=O)c2cncc(-c3ccc(Cl)cc3)c2)cc(OC)c1 [Compound 16, (E)-5-(4-chlorophenyl)-N′-(3,5-dimethoxybenzylidene) nicotinohydrazide]",4.12,4.25,–,–
"COc1cc(/C=N/NC(=O)c2cncc(-c3ccc(OC(F)(F)F)cc3)c2)cc(OC)c1 [Compound 17, (E)-N′-(3,5-dimethoxybenzylidene)-5-(4-(trifluoromethoxy)phenyl) nicotinohydrazide]",7.09,6.83,–,–
"CCOc1ccc(-c2cncc(C(=O)N/N=C/c3cc(OC)cc(OC)c3)c2)cc1 [Compound 18, (E)-N′-(3,5-dimethoxybenzylidene)-5-(4-ethoxyphenyl) nicotinohydrazide]",7.09,6.83,–,–
"COc1cc(/C=N/NC(=O)c2cncc(-c3ccc(OC(C)C)cc3)c2)cc(OC)c1 [Compound 19, (E)-N′-(3,5-dimethoxybenzylidene)-5-(4-isopropoxyphenyl) nicotinohydrazide]",5.72,5.9,–,–
"COc1cc(/C=N/NC(=O)c2ccnc(-c3ccc(Cl)cc3)c2)cc(OC)c1 [Compound 20, (E)-2-(4-chlorophenyl)-N′-(3,5-dimethoxybenzylidene) isonicotinohydrazide]",–,–,< 10,< 10
"COc1cc(/C=N/NC(=O)c2ccnc(-c3ccc(OC(F)(F)F)cc3)c2)cc(OC)c1 [Compound 21, (E)-N′-(3,5-dimethoxybenzylidene)-2-(4-(trifluoromethoxy)phenyl) isonicotinohydrazide]",–,–,< 10,< 10
"CCOc1ccc(-c2cc(C(=O)N/N=C/c3cc(OC)cc(OC)c3)ccn2)cc1 [Compound 22, (E)-N′-(3,5-dimethoxybenzylidene)-2-(4-ethoxyphenyl) isonicotinohydrazide]",> 10,> 10,–,–
"COc1cc(/C=N/NC(=O)c2ccnc(-c3ccc(OC(C)C)cc3)c2)cc(OC)c1 [Compound 23, (E)-N′-(3,5-dimethoxybenzylidene)-2-(4-isopropoxyphenyl) isonicotinohydrazide]",> 10,> 10,–,–
"COc1cc(/C=N/NC(=O)c2cccc(-c3ccc(OC(C)C)cc3)n2)cc(OC)c1 [Compound 24, (E)-N′-(3,5-dimethoxybenzylidene)-6-(4-isopropoxyphenyl) picolinohydrazide]",5.72,5.9,–,–
"COc1ccc(-c2cncc(C(=O)N/N=C/c3cc(OC)cc(OC)c3)c2)cc1 [Compound 25, (E)-N′-(3,5-dimethoxybenzylidene)-5-(4-methoxyphenyl) nicotinohydrazide]",> 10,> 10,–,–
"CCCOc1ccc(-c2cncc(C(=O)N/N=C/c3cc(OC)cc(OC)c3)c2)cc1 [Compound 26, (E)-N′-(3,5-dimethoxybenzylidene)-5-(4-propoxyphenyl) nicotinohydrazide]",3.5,> 10,–,–
"CCCCOc1ccc(-c2cncc(C(=O)N/N=C/c3cc(OC)cc(OC)c3)c2)cc1 [Compound 27, (E)-5-(4-butoxyphenyl)-N′-(3,5-dimethoxybenzylidene) nicotinohydrazide]",> 10,> 10,–,–
"COc1cc(/C=N/NC(=O)c2cncc(-c3ccc(OC4CCCC4)cc3)c2)cc(OC)c1 [Compound 28, (E)-5-(4-(cyclopentyloxy)phenyl)-N′-(3,5-dimethoxybenzylidene) nicotinohydrazide]",> 10,> 10,–,–
"COc1ccc(-c2cc(C(=O)N/N=C/c3cc(OC)cc(OC)c3)ccn2)cc1 [Compound 29, (E)-N′-(3,5-dimethoxybenzylidene)-2-(4-methoxyphenyl) isonicotinohydrazide]",> 10,> 10,–,–
"CCCOc1ccc(-c2cc(C(=O)N/N=C/c3cc(OC)cc(OC)c3)ccn2)cc1 [Compound 30, (E)-N′-(3,5-dimethoxybenzylidene)-2-(4-propoxyphenyl) isonicotinohydrazide]",> 10,> 10,–,–
"CCOc1ccc(-c2cccc(C(=O)N/N=C/c3ccccc3F)n2)cc1 [Compound 32, (E)-6-(4-ethoxyphenyl)-N′-(2-fluorobenzylidene) picolinohydrazide]",1.04,1.36,–,–
"CCOc1ccc(-c2cccc(C(=O)N/N=C/c3ccccc3Cl)n2)cc1 [Compound 33, (E)-N′-(2-chlorobenzylidene)-6-(4-ethoxyphenyl) picolinohydrazide]",> 10,> 10,–,–
